As a reminder, the IC50 is the concentration that gives 50% inhibition.

Read-outs that look alike come from different tables or passages of the source.

Among the data in US10660877B2 (BRISTOL-MYERS SQUIBB COMPANY, priority 2016, dated 2020) are IC50 values, retold here.

One experiment has as its target human TLR7 (Homo sapiens (Human), UniProt Q9NYK1). Description: TLR7 inhibition reporter assay (HEK-Blue cells, SEAP reporter, gardiquimod stimulation). The class given is cell-based. Background: A reporter such as luciferase makes a cellular process visible.
Another experiment concerns the target human TLR8 (Homo sapiens (Human), UniProt Q9NR97). The experiment is described as follows: TLR8 inhibition reporter assay (HEK-Blue cells, SEAP reporter, R848 stimulation).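 Further: compounds tested from 0.05 nM to 50 µM, 22 h at 37 °C, SEAP measured with HEK-Blue Detection, inhibition relative to agonist plus DMSO versus a known inhibitor.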
The next experiment concerns the target human TLR9 (Homo sapiens (Human), UniProt Q9NR96). The experiment is described as follows: TLR9 inhibition reporter assay (HEK-Blue cells, SEAP reporter, ODN2006 stimulation).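 Further: compounds tested over 0.05 nM to 50 µM, 22 h incubation, inhibition taken as SEAP signal drop from agonist plus DMSO wells toward a known inhibitor control.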
Setting [1] is: HEK-Blue cells overexpressing human TLR7, gardiquimod 7.5 μM.
Where [2] appears, read: read-out: TLR8 IC50, HEK-Blue cells overexpressing human TLR8, R848 15.9 μM.
Setting [3] is: read-out: TLR9 IC50, HEK-Blue cells overexpressing human TLR9, ODN2006 5 nM.
Setting [4] is: TLR8 IC50, HEK-Blue cells overexpressing human TLR8, R848 15.9 μM.
Where [5] appears, read: TLR9 IC50, HEK-Blue cells overexpressing human TLR9, ODN2006 5 nM.

Chain of human TLR7 (Q9NYK1 27-1049): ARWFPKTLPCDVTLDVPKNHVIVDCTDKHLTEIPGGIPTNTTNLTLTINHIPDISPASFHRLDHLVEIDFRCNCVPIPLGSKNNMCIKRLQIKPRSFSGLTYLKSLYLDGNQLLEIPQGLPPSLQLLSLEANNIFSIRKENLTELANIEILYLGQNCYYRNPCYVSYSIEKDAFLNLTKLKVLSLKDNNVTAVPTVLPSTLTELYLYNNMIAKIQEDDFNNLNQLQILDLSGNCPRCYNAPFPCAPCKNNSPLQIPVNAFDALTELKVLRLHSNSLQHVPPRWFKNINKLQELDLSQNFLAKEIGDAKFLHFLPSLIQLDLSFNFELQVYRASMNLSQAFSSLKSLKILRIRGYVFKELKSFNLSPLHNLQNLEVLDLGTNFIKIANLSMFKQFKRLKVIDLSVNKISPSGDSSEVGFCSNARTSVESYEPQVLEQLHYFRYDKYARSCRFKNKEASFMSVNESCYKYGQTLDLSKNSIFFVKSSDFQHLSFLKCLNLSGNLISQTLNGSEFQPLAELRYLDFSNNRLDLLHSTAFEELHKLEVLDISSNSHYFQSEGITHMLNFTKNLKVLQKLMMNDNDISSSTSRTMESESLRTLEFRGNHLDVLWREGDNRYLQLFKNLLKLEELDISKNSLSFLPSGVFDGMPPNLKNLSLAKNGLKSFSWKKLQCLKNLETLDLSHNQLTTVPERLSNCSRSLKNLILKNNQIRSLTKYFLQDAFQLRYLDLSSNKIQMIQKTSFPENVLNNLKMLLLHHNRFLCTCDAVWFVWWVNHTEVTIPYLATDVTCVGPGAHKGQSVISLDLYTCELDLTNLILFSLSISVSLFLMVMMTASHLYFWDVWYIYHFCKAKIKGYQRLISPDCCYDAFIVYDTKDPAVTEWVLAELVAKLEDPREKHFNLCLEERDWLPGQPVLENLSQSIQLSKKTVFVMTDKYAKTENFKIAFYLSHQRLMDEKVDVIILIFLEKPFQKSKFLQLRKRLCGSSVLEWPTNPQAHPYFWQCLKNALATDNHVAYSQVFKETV
Chain of human TLR8 (Q9NR97 27-1041): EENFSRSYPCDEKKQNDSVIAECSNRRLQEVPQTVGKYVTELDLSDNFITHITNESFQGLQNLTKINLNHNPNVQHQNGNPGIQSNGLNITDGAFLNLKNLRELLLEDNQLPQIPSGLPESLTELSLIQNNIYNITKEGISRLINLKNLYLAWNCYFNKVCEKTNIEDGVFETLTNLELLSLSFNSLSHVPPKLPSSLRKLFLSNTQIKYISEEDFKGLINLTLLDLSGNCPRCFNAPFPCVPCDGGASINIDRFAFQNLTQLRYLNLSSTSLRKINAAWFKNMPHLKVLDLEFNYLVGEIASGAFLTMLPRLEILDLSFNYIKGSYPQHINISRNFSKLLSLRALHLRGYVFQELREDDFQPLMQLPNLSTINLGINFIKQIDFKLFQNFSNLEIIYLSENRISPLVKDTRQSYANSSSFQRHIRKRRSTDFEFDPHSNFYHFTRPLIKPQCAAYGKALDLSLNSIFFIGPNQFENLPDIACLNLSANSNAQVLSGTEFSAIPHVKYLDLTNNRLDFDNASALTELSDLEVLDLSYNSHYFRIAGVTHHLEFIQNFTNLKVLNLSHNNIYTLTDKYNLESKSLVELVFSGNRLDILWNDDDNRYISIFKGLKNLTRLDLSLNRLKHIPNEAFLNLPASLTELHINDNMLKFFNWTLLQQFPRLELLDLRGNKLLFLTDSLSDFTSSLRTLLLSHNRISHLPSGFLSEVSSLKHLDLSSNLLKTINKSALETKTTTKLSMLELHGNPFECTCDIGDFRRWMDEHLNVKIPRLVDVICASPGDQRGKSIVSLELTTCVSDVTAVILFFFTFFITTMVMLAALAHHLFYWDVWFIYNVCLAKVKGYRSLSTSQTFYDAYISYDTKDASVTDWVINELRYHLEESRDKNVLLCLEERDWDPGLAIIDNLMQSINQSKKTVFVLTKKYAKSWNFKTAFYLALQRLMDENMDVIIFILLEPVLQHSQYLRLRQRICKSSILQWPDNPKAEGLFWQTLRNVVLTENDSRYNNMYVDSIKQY
Chain of human TLR9 (Q9NR96 26-1032): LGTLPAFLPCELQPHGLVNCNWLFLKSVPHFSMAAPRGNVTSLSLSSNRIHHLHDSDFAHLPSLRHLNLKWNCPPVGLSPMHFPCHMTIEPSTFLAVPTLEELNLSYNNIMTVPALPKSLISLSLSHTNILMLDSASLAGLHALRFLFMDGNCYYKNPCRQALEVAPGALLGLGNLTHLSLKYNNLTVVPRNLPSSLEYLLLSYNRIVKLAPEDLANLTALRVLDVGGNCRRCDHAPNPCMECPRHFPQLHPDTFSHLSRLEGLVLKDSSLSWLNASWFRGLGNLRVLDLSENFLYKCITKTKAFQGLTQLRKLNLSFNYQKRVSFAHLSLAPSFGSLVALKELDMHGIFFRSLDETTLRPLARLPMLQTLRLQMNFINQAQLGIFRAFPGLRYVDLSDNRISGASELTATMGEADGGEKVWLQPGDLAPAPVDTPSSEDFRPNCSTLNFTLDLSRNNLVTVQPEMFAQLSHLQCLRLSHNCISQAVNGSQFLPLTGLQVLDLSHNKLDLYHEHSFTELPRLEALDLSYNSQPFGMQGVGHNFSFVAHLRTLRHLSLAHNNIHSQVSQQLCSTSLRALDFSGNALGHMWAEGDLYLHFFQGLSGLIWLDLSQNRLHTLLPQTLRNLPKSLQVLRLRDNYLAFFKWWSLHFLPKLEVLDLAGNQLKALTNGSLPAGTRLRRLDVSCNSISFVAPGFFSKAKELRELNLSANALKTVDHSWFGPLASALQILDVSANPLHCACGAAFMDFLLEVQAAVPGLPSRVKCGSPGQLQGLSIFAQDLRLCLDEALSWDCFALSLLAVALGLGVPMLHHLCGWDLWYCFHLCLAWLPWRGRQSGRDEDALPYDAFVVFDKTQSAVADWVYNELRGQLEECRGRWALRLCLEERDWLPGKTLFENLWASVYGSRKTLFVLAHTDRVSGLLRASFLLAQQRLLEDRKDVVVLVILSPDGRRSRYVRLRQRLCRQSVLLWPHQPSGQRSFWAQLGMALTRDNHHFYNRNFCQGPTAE

In the case of `Cc1cc(-c2[nH]c3ccc(C4CCN(Cc5ccccc5)CC4)cc3c2C(C)C)cc(C)n1` [Example 318, 5-(1-benzylpiperidin-4-yl)-2-(2,6-dimethylpyridin-4-yl)-3-isopropyl-1H-indole], the concentration for half-maximal inhibition (IC50) at human TLR7 (setting [1]) came to 25.4 nM; on human TLR8 (setting [2]), 12.6 nM; on human TLR9 (setting [3]), 779 nM.

Regarding `Cc1cc(-c2[nH]c3ccc(C4CCN(CC(=O)NC(C)C)CC4)cc3c2C(C)C)cc(C)n1` [Example 218, 2-(4-(2-(2,6-dimethylpyridin-4-yl)-3-isopropyl-1H-indol-5-yl)piperidin-1-yl)-N-isopropylacetamide], the figures for the IC50 on human TLR7 (setting [1]), on human TLR8 (setting [2]) and at human TLR9 (setting [3]) were 4.9 nM, 10.5 nM and 949 nM, respectively.

Regarding `CCC(C)CN(CCO)C(=O)CN1CCC(c2ccc3[nH]c(-c4cc(C)nc(C)c4)c(C(C)C)c3c2)CC1` (stereo not drawn) [Example 297, 2-(4-(2-(2,6-dimethylpyridin-4-yl)-3-isopropyl-1H-indol-5-yl)piperidin-1-yl)-N-(2-hydroxyethyl)-N-(2-methylbutyl)acetamide], the results for the IC50 on human TLR7 (setting [1]), on human TLR8 (setting [2]) and at human TLR9 (setting [3]) were 13.4 nM, 43.6 nM and 710 nM, respectively.

Turning to `Cc1cc(-c2[nH]c3ccc(C4CCN(C5CC(C)OC(C)C5)CC4)cc3c2C(C)C)cc(C)n1` (stereo not drawn) [Example 455, 2-(2,6-dimethylpyridin-4-yl)-5-(1-(2,6-dimethyltetrahydro-2H-pyran-4-yl)piperidin-4-yl)-3-isopropyl-1H-indole], the IC50 was determined as 10.9 nM on human TLR7 (setting [1]), 7.6 nM at human TLR8 (setting [2]) and 390 nM on human TLR9 (setting [3]).

As for `Cc1cc(-c2[nH]c3ccc(C4CCN(C(=O)CN(C)C)CC4)cc3c2CC(F)F)cc(C)n1` [Example 533, 1-(4-(3-(2,2-difluoroethyl)-2-(2,6-dimethylpyridin-4-yl)-1H-indol-5-yl)piperidin-1-yl)-2-(dimethylamino)ethan-1-one], the IC50 on human TLR7 (setting [1]) was found to be 77.8 nM; at human TLR8 (setting [2]) it was 285 nM; on human TLR9 (setting [3]) it was 1480 nM.

As for `Cc1cc(-c2[nH]c3ccc(C4CCN(C(=O)CNCCC(C)C)CC4)cc3c2C(C)C)cc(C)n1` [Example 393, 1-(4-(2-(2,6-dimethylpyridin-4-yl)-3-isopropyl-1H-indol-5-yl)piperidin-1-yl)-2-(isopentylamino)ethan-1-one], the IC50 against human TLR7 (setting [1]) amounted to 7.9 nM; on human TLR8 (setting [4]) it was 37.8 nM; on human TLR9 (setting [5]), 800 nM.

For the compound `COc1c(-c2[nH]c3ccc(C4CCNCC4)cc3c2C(C)C)cc[n+]([O-])c1C` [Example 57], the 50% inhibitory concentration (IC50) against human TLR7 (setting [1]) turned out to be 489 nM; at human TLR8 (setting [2]), 281 nM; at human TLR9 (setting [3]), 1770 nM.

Regarding `COc1cc(OC)nc(CN2CCC(c3ccc4[nH]c(-c5cc(C)ncc5C)c(C(C)C)c4c3)CC2)n1` [Example 693, 5-(1-((4,6-dimethoxypyrimidin-2-yl)methyl)piperidin-4-yl)-2-(2,5-dimethylpyridin-4-yl)-3-isopropyl-1H-indole], the IC50 on human TLR7 (setting [1]) worked out at 33.1 nM; at human TLR8 (setting [2]) it was 5.2 nM; on human TLR9 (setting [3]) it was 1680 nM.

For `CNCCC(=O)N1CCC(c2ccc3[nH]c(-c4cc(C)nc(C)c4)c(C(C)C)c3c2)CC1` [Example 183, 1-(4-(2-(2,6-dimethylpyridin-4-yl)-3-isopropyl-1H-indol-5-yl)piperidin-1-yl)-3-(methylamino)propan-1-one], the half-inhibitory concentration (IC50) on human TLR7 (setting [1]) was 0.9 nM; at human TLR8 (setting [4]), 19.7 nM; against human TLR9 (setting [5]), 323 nM.

Regarding `Cc1cc(-c2[nH]c3ccc(C4CCN(C(=O)c5c(C)nn(C)c5C)CC4)cc3c2C(C)C)cc(C)n1` [Example 131, (4-(2-(2,6-dimethylpyridin-4-yl)-3-isopropyl-1H-indol-5-yl)piperidin-1-yl)(1,3,5-trimethyl-1H-pyrazol-4-yl)methanone], the IC50 at human TLR7 (setting [1]) came to 12 nM; at human TLR8 (setting [2]), 77.1 nM; on human TLR9 (setting [3]), 17500 nM.

Consider `COC[C@@H]1CCCN1C(=O)CN1CCC(c2ccc3[nH]c(-c4cc(C)nc(C)c4)c(C(C)C)c3c2)CC1` [Example 263, (S)-2-(4-(2-(2,6-dimethylpyridin-4-yl)-3-isopropyl-1H-indol-5-yl)piperidin-1-yl)-1-(2-(methoxymethyl)pyrrolidin-1-yl)ethan-1-one], for which the half-maximal inhibitory concentration (IC50) was 3.7 nM on human TLR7 (setting [1]), 13.6 nM at human TLR8 (setting [2]) and 279 nM at human TLR9 (setting [3]).

For `CCc1c(-c2ccnc(OC)c2)[nH]c2ccc(C3CCN(C4CCN(CC5CC5)CC4)CC3)cc12` [Example 789, 5-(1′-(cyclopropylmethyl)-[1,4′-bipiperidin]-4-yl)-3-ethyl-2-(2-methoxypyridin-4-yl)-1H-indole], the half-inhibitory concentration (IC50) was 599 nM on human TLR7 (setting [1]), 269 nM at human TLR8 (setting [2]) and 408 nM on human TLR9 (setting [3]).

Turning to `Cc1cc(-c2[nH]c3ccc(C4CCN(CC(=O)N(C)C)CC4)cc3c2C(C)C)c(F)c(C)n1` [Example 645, 2-(4-(2-(3-fluoro-2,6-dimethylpyridin-4-yl)-3-isopropyl-1H-indol-5-yl)piperidin-1-yl)-N,N-dimethylacetamide], the results for the concentration for half-maximal inhibition (IC50) against human TLR7 (setting [1]), at human TLR8 (setting [2]) and on human TLR9 (setting [3]) were 1.7 nM, 5.8 nM and 7430 nM, respectively.

Take `Cc1cc(-c2[nH]c3ccc(C4CCN(Cc5nncn5C)CC4)cc3c2C(C)C)c(C)cn1` [Example 736, 2-(2,5-dimethylpyridin-4-yl)-3-isopropyl-5-(1-((4-methyl-4H-1,2,4-triazol-3-yl)methyl)piperidin-4-yl)-1H-indole]: the IC50 against human TLR7 (setting [1]) was found to be 42.3 nM; on human TLR8 (setting [2]), 6.5 nM; on human TLR9 (setting [3]) it was 20100 nM.

`Cc1cc(-c2[nH]c3ccc(C4CCN(CC(O)C(C)C)CC4)cc3c2C(C)C)cc(C)n1` (stereo not drawn) [Example 849, 1-(4-(2-(2,6-dimethylpyridin-4-yl)-3-isopropyl-1H-indol-5-yl)piperidin-1-yl)-3-methylbutan-2-ol]: the half-inhibitory concentration (IC50) stood at 1.4 nM at human TLR7 (HEK-Blue cells, gardiquimod 7.5 μM); 2.3 nM on human TLR8 (read-out: TLR8 IC50, HEK-Blue cells, R848 15.9 μM); 291 nM on human TLR9 (read-out: TLR9 IC50, HEK-Blue cells, ODN2006 5 nM).

Regarding `Cc1cc(-c2[nH]c3ccc(C4CCN(C(=O)CN5CCC(F)CC5)CC4)cc3c2C(C)C)cc(C)n1` [Example 388, 1-(4-(2-(2,6-dimethylpyridin-4-yl)-3-isopropyl-1H-indol-5-yl)piperidin-1-yl)-2-(4-fluoropiperidin-1-yl)ethan-1-one], the half-inhibitory concentration (IC50) on human TLR7 (setting [1]) was found to be 4.3 nM; at human TLR8 (setting [2]) it was 20.9 nM; on human TLR9 (setting [3]), 831 nM.

For `COc1ccc(CN2CCC(c3ccc4[nH]c(-c5cc(C)nc(C)c5)c(C(C)C)c4c3)CC2)cn1` [Example 424, 2-(2,6-dimethylpyridin-4-yl)-3-isopropyl-5-(1-((6-methoxypyridin-3-yl)methyl)piperidin-4-yl)-1H-indole], the IC50 against human TLR7 (setting [1]) was found to be 8.3 nM; at human TLR8 (setting [2]), 7.2 nM; at human TLR9 (setting [3]) it was 255 nM.

As to `Cc1nccc(-c2[nH]c3ccc(C4CCN(C5COC5)CC4)cc3c2C(C)C)c1F` [Example 730, 2-(3-fluoro-2-methylpyridin-4-yl)-3-isopropyl-5-(1-(oxetan-3-yl)piperidin-4-yl)-1H-indole], the half-maximal inhibitory concentration (IC50) at human TLR7 (setting [1]) was 9.2 nM; at human TLR8 (setting [2]), 8.2 nM; on human TLR9 (setting [3]) it was 9410 nM.

For the compound `Cc1cc(-c2[nH]c3ccc(C4CCN(C(=O)Cc5cn(C)cn5)CC4)cc3c2C(C)C)cc(C)n1` [Example 137, 1-(4-(2-(2,6-dimethylpyridin-4-yl)-3-isopropyl-1H-indol-5-yl)piperidin-1-yl)-2-(1-methyl-1H-imidazol-4-yl)ethan-1-one], the IC50 at human TLR7 (setting [1]) is 8.2 nM; at human TLR8 (setting [2]) it was 39.1 nM; at human TLR9 (setting [3]), 1780 nM.

In the case of `CC(C)c1c(-c2ccnc(N)c2)[nH]c2ccc(C3CCNCC3)cc12` [Example 8, 4-(3-isopropyl-5-(piperidin-4-yl)-1H-indol-2-yl)pyridin-2-amine], the 50% inhibitory concentration (IC50) was 34.4 nM against human TLR7 (setting [1]), 28.8 nM at human TLR8 (setting [2]) and 160 nM on human TLR9 (setting [3]).

Turning to `Cc1cc(-c2[nH]c3ccc(C4CCN(C(=O)Cn5cncn5)CC4)cc3c2C(C)C)cc(C)n1` [Example 170, 1-(4-(2-(2,6-dimethylpyridin-4-yl)-3-isopropyl-1H-indol-5-yl)piperidin-1-yl)-2-(1H-1,2,4-triazol-1-yl)ethan-1-one], the IC50 against human TLR7 (setting [1]) is 12.1 nM; on human TLR8 (setting [2]), 206 nM; at human TLR9 (setting [3]) it was over 50000 nM.

As for `Cc1cc(-c2[nH]c3ccc(C4CCN(C(=O)C5CCN(C)C(=O)C5)CC4)cc3c2C(C)C)ccn1` (stereo not drawn) [Example 607, 4-(4-(3-isopropyl-2-(2-methylpyridin-4-yl)-1H-indol-5-yl)piperidine-1-carbonyl)-1-methylpiperidin-2-one], the IC50 at human TLR7 (setting [1]) is 94 nM; at human TLR8 (setting [2]), 186 nM; on human TLR9 (setting [3]), over 50000 nM.

As to `Cc1cc(-c2[nH]c3ccc(C4CCN(C(=O)CN5CCCC5=O)CC4)cc3c2C(C)C)cc(C)n1` [Example 154, 1-(2-(4-(2-(2,6-dimethylpyridin-4-yl)-3-isopropyl-1H-indol-5-yl)piperidin-1-yl)-2-oxoethyl)pyrrolidin-2-one], the IC50 against human TLR7 (setting [1]) was 5.9 nM; on human TLR8 (setting [2]) it was 29.5 nM; on human TLR9 (setting [3]), over 50000 nM.

In the case of `Cc1cc(-c2[nH]c3ccc(C4CCN(C5CCCOC5)CC4)cc3c2C(C)C)c(C)cn1` (stereo not drawn) [Example 726, 2-(2,5-dimethylpyridin-4-yl)-3-isopropyl-5-(1-(tetrahydro-2H-pyran-3-yl)piperidin-4-yl)-1H-indole], the IC50 worked out at 14.2 nM against human TLR7 (setting [1]), 1.1 nM at human TLR8 (setting [2]) and 1450 nM at human TLR9 (setting [3]).

As for `Cc1cc(-c2[nH]c3ccc(C4CCN(C(=O)CN5CCOC[C@H]5CO)CC4)cc3c2C(C)C)cc(C)n1` [Example 400, (R)-1-(4-(2-(2,6-dimethylpyridin-4-yl)-3-isopropyl-1H-indol-5-yl)piperidin-1-yl)-2-(3-(hydroxymethyl)morpholino)ethan-1-one], the IC50 worked out at 3.4 nM against human TLR7 (setting [1]), 16.8 nM on human TLR8 (setting [2]) and 451 nM on human TLR9 (setting [3]).
